According to patent publication US12084441B2, “Salts of a compound and the crystalline forms thereof” (priority 2017, dated 2024):

Experiments:
[1] = Rough solubility test of salt of Formula A in water; type: physicochemical; settings: Purified Water, 19° C.; for solubility at 5 min: thermodynamic from solid
Method: After each addition of water, the test tube was shaken for 5 minutes until the solid was dissolved completely. Then the rough solubility of the compound was calculated according to the weight of the compound weighed and the total amount of water added.

[2] = Stability experiment of salt of Formula A (high temperature, high humidity, illumination; HPLC purity and X-ray powder diffraction); type: physicochemical; settings: for Purity (%): HPLC; for Stability (chemical purity and crystalline form): high temperature, illumination or high humidity for 10 days
Method: Determination method: the test samples of Form A-I, Form B-I, Form C-I, and Form C-Ill of salt of Formula A were placed on the culture dishes respectively, which were uncovered and placed in sealed clean containers. The containers were placed under a temperature of 60° C. for 10 days, under an illumination of 4500 lx±500 lx for 10 days, and under a temperature of 25° C. and a relative humidity of 92.5%±5% for 10 days respectively. Then sampled on the 5th day and the 10th day respectively. Investigated for the purity (using HPLC analysis) and crystalline form (using X-ray powder diffraction analysis) of the samples, and compared the investigation results. The experimental results of the salts and the crystalline forms thereof were shown in Table 1, Table 2, Table 3, and Table 4.9

physchem = settings: water, thermodynamic from solid, Solubility (mg/mL)
Source text: (§1) Then the excess solids were filtered out, and the clear filtrates were used to determine solubility.

[3] = Solubility test of salt of Formula A (acetate, Form A-I) and its free base in different solvents; settings: thermodynamic from solid
Source text: as §1

[4] = High humidity (92.5% RH, 25° C.), 5 days, monomalate
[5] = High humidity (92.5% RH, 25° C.), 10 days, monomalate
[6] = High temperature (60° C.), 5 days, monomalate
[7] = High temperature (60° C.), 10 days, monomalate
[8] = Illumination (4500 Lx), 5 days, monomalate
[9] = Illumination (4500 Lx), 10 days, monomalate
[10] = 0 day, crystalline form by X-ray powder diffraction
[11] = High humidity (92.5% RH, 25° C.), 5 days
[12] = High humidity (92.5% RH, 25° C.), 5 days, X-ray powder diffraction
[13] = High humidity (92.5% RH, 25° C.), 10 days
[14] = High humidity (92.5% RH, 25° C.), 10 days, X-ray powder diffraction
[15] = High temperature (60° C.), 5 days
[16] = High temperature (60° C.), 5 days, X-ray powder diffraction
[17] = High temperature (60° C.), 10 days
[18] = High temperature (60° C.), 10 days, X-ray powder diffraction
[19] = Illumination (4500 Lx), 5 days, X-ray powder diffraction
[20] = Illumination (4500 Lx), 10 days
[21] = Illumination (4500 Lx), 10 days, X-ray powder diffraction
[22] = High humidity (92.5% RH, 25° C.), 5 days, malate
[23] = High humidity (92.5% RH, 25° C.), 10 days, malate
[24] = High temperature (60° C.), 5 days, malate
[25] = High temperature (60° C.), 10 days, malate
[26] = Illumination (4500 Lx), 5 days, malate
[27] = Illumination (4500 Lx), 10 days, malate

For `CS(=O)(=O)N1CCC(c2ccc(-c3cc4nccnc4c(NC[C@@H]4CNCCO4)n3)cc2)CC1.O=C(O)CC(O)C(=O)O` [Form C-I, (S)-7-(4-(1-(methylsulfonyl)piperidin-4-yl)phenyl)-N-(morpholin-2-ylmethyl)pyrido[3,4-b]pyrazin-5-amine monomalate], the solubility at 5 min [1] was 480 µg/mL, the “Purity (%)” value ([2]; 0 day, monomalate) was 99.71% and the Form ([2]; 0 day, crystalline form by X-ray powder diffraction, monomalate) was “C-I”. The “Chiral Purity (%)” value ([2]; 0 day, monomalate) was 99.52%, the “Purity (%)” value [2, 4] was 99.72% and the Form ([2]; High humidity (92.5% RH, 25° C.), 5 days, X-ray powder diffraction, monomalate) was “C-I”. For the same compound, the “Chiral Purity (%)” value [2, 4] was 99.53%, the “Purity (%)” value [2, 5] was 99.68% and the Form ([2]; High humidity (92.5% RH, 25° C.), 10 days, X-ray powder diffraction, monomalate) was “C-I”. The “Chiral Purity (%)” value [2, 5] was 99.53%, the “Purity (%)” value [2, 6] was 99.61% and the Form ([2]; High temperature (60° C.), 5 days, X-ray powder diffraction, monomalate) was “C-I”. The “Chiral Purity (%)” value [2, 6] was 99.52%, the “Purity (%)” value [2, 7] was 99.63% and the Form ([2]; High temperature (60° C.), 10 days, X-ray powder diffraction, monomalate) was “C-I”. The “Chiral Purity (%)” value [2, 7] was 99.54%, the “Purity (%)” value [2, 8] was 99.67% and the Form ([2]; Illumination (4500 Lx), 5 days, X-ray powder diffraction, monomalate) was “C-I”. For the same compound, the “Chiral Purity (%)” value [2, 8] was 99.51%, the “Purity (%)” value [2, 9] was 99.61% and the Form ([2]; Illumination (4500 Lx), 10 days, X-ray powder diffraction, monomalate) was “C-I”. The “Chiral Purity (%)” value [2, 9] was 99.50% and the “Stability (chemical purity and crystalline form)” value [2] was “stable”.

For `CC(=O)O.CS(=O)(=O)N1CCC(c2ccc(-c3cc4nccnc4c(NC[C@@H]4CNCCO4)n3)cc2)CC1` [Form A-I, (S)-7-(4-(1-(methylsulfonyl)piperidin-4-yl)phenyl)-N-(morpholin-2-ylmethyl)pyrido[3,4-b]pyrazin-5-amine monoacetate], the solubility at 5 min [1] was 14600 µg/mL, the “Chiral Purity (%)” value ([2]; 0 day) was 99.63% and the “Purity (%)” value ([2]; 0 day) was 99.39%. For the same compound, the Form [2, 10] was “A-I”, the “Chiral Purity (%)” value [2, 11] was 99.69% and the “Purity (%)” value [2, 11] was 99.35%. For the same compound, the Form [2, 12] was “A-I”, the “Chiral Purity (%)” value [2, 13] was 99.71% and the “Purity (%)” value [2, 13] was 99.53%. For the same compound, the Form [2, 14] was “A-I”, the “Chiral Purity (%)” value [2, 15] was 99.66% and the “Purity (%)” value [2, 15] was 99.31%. For the same compound, the Form [2, 16] was “A-I”, the “Chiral Purity (%)” value [2, 17] was 99.71% and the “Purity (%)” value [2, 17] was 99.37%. For the same compound, the Form [2, 18] was “A-I”, the “Chiral Purity (%)” value ([2]; Illumination (4500 Lx), 5 days) was 99.69% and the “Purity (%)” value ([2]; Illumination (4500 Lx), 5 days) was 99.30%. The Form [2, 19] was “A-I”, the “Chiral Purity (%)” value [2, 20] was 99.71% and the “Purity (%)” value [2, 20] was 98.99%. For the same compound, the Form [2, 21] was “A-I”, the “Stability (chemical purity and crystalline form)” value [2] was “stable” and the solubility at 4 h (physchem; 37 °C) was 26200 µg/mL. The solubility at 4 h (physchem) was 21800 µg/mL.

Work on `CS(=O)(=O)N1CCC(c2ccc(-c3cc4nccnc4c(NC[C@@H]4CNCCO4)n3)cc2)CC1` [Free base of Formula A, (S)-7-(4-(1-(methylsulfonyl)piperidin-4-yl)phenyl)-N-(morpholin-2-ylmethyl) pyrido[3,4-b]pyrazin-5-amine] yielded a solubility at 4 h ([3]; acetone, organic solvent or mixture) of 2120 µg/mL, a solubility at 4 h ([3]; ethanol, organic solvent or mixture) of 640 µg/mL and a solubility at 4 h ([3]; methanol, organic solvent or mixture) of 1580 µg/mL. The solubility at 4 h ([3]; purified water, 37 °C, water) was 2.5 µg/mL, the solubility at 4 h ([3]; purified water, water) was 2.4 µg/mL and the solubility at 4 h ([3]; tetrahydrofuran, organic solvent or mixture) was 10700 µg/mL.

With `CS(=O)(=O)N1CCC(c2ccc(-c3cc4nccnc4c(NC[C@@H]4CNCCO4)n3)cc2)CC1.Cc1ccc(S(=O)(=O)O)cc1` [Form B-I, (S)-7-(4-(1-(methylsulfonyl)piperidin-4-yl)phenyl)-N-(morpholin-2-ylmethyl)pyrido[3,4-b]pyrazin-5-amine mono p-Tosylate] the “Rough solubility” value [1] was 650 µg/mL, the “Chiral Purity (%)” value ([2]; 0 day) was 99.71% and the “Purity (%)” value ([2]; 0 day) was 99.49%. For the same compound, the Form [2, 10] was “B-I”, the “Chiral Purity (%)” value [2, 11] was 99.76% and the “Purity (%)” value [2, 11] was 99.47%. For the same compound, the Form [2, 12] was “B-I”, the “Chiral Purity (%)” value [2, 13] was 99.71% and the “Purity (%)” value [2, 13] was 99.63%. For the same compound, the Form [2, 14] was “B-I”, the “Chiral Purity (%)” value [2, 15] was 99.70% and the “Purity (%)” value [2, 15] was 99.48%. For the same compound, the Form [2, 16] was “B-I”, the “Chiral Purity (%)” value [2, 17] was 99.76% and the “Purity (%)” value [2, 17] was 99.51%. For the same compound, the Form [2, 18] was “B-I”, the “Chiral Purity (%)” value ([2]; Illumination (4500 Lx), 5 days) was 99.76% and the “Purity (%)” value ([2]; Illumination (4500 Lx), 5 days) was 99.19%. The Form [2, 19] was “B-I”, the “Chiral Purity (%)” value [2, 20] was 99.72% and the “Purity (%)” value [2, 20] was 99.05%. The Form [2, 21] was “B-I”.

In the case of `CS(=O)(=O)N1CCC(c2ccc(-c3cc4nccnc4c(NC[C@@H]4CNCCO4)n3)cc2)CC1.O=C(O)CC(O)C(=O)O` [Form C-III, (S)-7-(4-(1-(methylsulfonyl)piperidin-4-yl)phenyl)-N-(morpholin-2-ylmethyl)pyrido[3,4-b]pyrazin-5-amine malate], the “Purity (%)” value ([2]; 0 day, malate) is reported as 99.75%, the Form ([2]; 0 day, crystalline form by X-ray powder diffraction, malate) is reported as “C-III” and the “Chiral Purity (%)” value ([2]; 0 day, malate) is reported as 99.39%. The “Purity (%)” value [2, 22] was 99.67%, the Form ([2]; High humidity (92.5% RH, 25° C.), 5 days, X-ray powder diffraction, malate) was “C-III” and the “Chiral Purity (%)” value [2, 22] was 99.39%. For the same compound, the “Purity (%)” value [2, 23] was 99.69%, the Form ([2]; High humidity (92.5% RH, 25° C.), 10 days, X-ray powder diffraction, malate) was “C-III” and the “Chiral Purity (%)” value [2, 23] was 99.38%. For the same compound, the “Purity (%)” value [2, 24] was 99.57%, the Form ([2]; High temperature (60° C.), 5 days, X-ray powder diffraction, malate) was “C-III” and the “Chiral Purity (%)” value [2, 24] was 99.40%. The “Purity (%)” value [2, 25] was 99.70%, the Form ([2]; High temperature (60° C.), 10 days, X-ray powder diffraction, malate) was “C-III” and the “Chiral Purity (%)” value [2, 25] was 99.39%. For the same compound, the “Purity (%)” value [2, 26] was 99.59%, the Form ([2]; Illumination (4500 Lx), 5 days, X-ray powder diffraction, malate) was “C-III” and the “Chiral Purity (%)” value [2, 26] was 99.37%. The “Purity (%)” value [2, 27] was 99.65%, the Form ([2]; Illumination (4500 Lx), 10 days, X-ray powder diffraction, malate) was “C-III” and the “Chiral Purity (%)” value [2, 27] was 99.40%.
